In patent publication US5077305A, “Thiazole carboxylic acids and esters” (Bristol-Myers Squibb Co., priority 1990, dated 1991) one finds IC50 data, which are given here for 2 molecules.

The subject of the test is human platelet aggregation (ADP-induced). It counts as cell-based. The conditions noted are these: human platelet rich plasma; ADP final concentration 0.5 mcg/mL; read-out: Inhibition of Human Platelet Aggregation IC50 Vs ADP.

Values after ≈ are worked out from the molar mass of the structure shown.

Description: The aggregometer method of Born, C. […] Clin. Med. 1964, 64, 548-599 was used to assess the in vitro activity of the various compounds as to the inhibition of adenosine diphosphate (ADP) and collagen-induced platelet aggregation. The human volunteer donor's arm is cleansed with 70% ethyl alcohol. A sterile 20 ml syringe and needle are used to withdraw 20 ml of blood. The blood is immediately added to a test tube containing 3.8% sodium citrate to prevent clotting (1 part citrate to 9 parts blood).
Platelet rich plasma (PRP) was separated by centrifugation for 10 minutes at 1000 rpm (140 xg) from citrated (3.8%) human blood. All glassware used for preparation of PRP is silicon treated. ADP in final concentration of 0.5 mcg/mL or 0.05 mL of a collagen suspension prepared according to the method described by Evans, G., et al., J. Exp. Med., 1968, 128, 877-894 was used to induce aggregation. The various compounds tested were dissolved in dimethylsulfoxide (DMSO) so that 5 mcl added to the platelet rich plasma would yield the desired test concentration. Vehicle control trials were done and compared with aggregation induced in platelet rich plasma containing various concentrations of the test compounds. Dose response curves were obtained and Inhibitor Concentration (IC50) values calculated.

Turning to `COC(=O)COc1cccc(CCc2nc(-c3ccccc3)c(-c3ccccc3)s2)c1` [Example 1, Methyl (3-[2-(4,5-diphenyl-2-thiazolyl)ethyl]phenoxy]acetate], the IC50 stood at 0.41 µg/mL (≈ 0.955 µM).
Under `O=C(O)COc1cccc(CCc2nc(-c3ccccc3)c(-c3ccccc3)s2)c1` [Example 2, [3-[2-(4,5-Diphenyl-2-thiazolyl)ethyl]phenoxy]acetic Acid] stands 0.36 µg/mL (≈ 0.866 µM).

What is called IC50 is the concentration that gives 50% inhibition.
